Earlier results on four compounds are cited in patent publication US20070197592A1, “Use of Paliperidone for the Treatment of Substance Abuse” (priority 2005, published 2007).

One data set has as its system golden hamster. Particulars: cited from earlier work.
The test system of a further data set is animals. The conditions noted are these: cited from earlier work; for water or food consumption: at the same time as the inhibition of alcohol consumption.

Regarding `O=c1c(-c2ccc(O)cc2)coc2cc(O[C@@H]3O[C@H](CO)[C@@H](O)[C@H](O)[C@H]3O)ccc12` [Daidzin], in the data set on golden hamster, the alcohol drinking result is on record as “decreases alcohol drinking” and the “water or food intake” value is given as “without producing a decrease in water or food intake”.

Consider `C=CCN1CC[C@]23c4c5ccc(O)c4O[C@H]2C(=O)CC[C@@]3(O)[C@H]1C5` [naloxone], for which, in the data set on animals, the “water or food consumption” value was “impaired water or food consumption” and the alcohol consumption result is recorded as “inhibit alcohol consumption”.

In the case of `O=C1CC[C@@]2(O)[C@H]3Cc4ccc(O)c5c4[C@@]2(CCN3CC2CC2)[C@H]1O5` [naltrexone], in the data set with animals, the “water or food consumption” value was “impaired water or food consumption” and the alcohol consumption entry is on record as “inhibit alcohol consumption”.

For the compound `CN[C@H]1CC[C@@H](c2ccc(Cl)c(Cl)c2)c2ccccc21` [sertraline], in the data set with animals, the “water or food consumption” value is recorded as “impaired water or food consumption” and the alcohol consumption entry is listed as “inhibit alcohol consumption”.
